Test results reported in ChEMBL document CHEMBL5046232, “Affinity-based protein profiling identifies vitamin D3 as a heat shock protein 70 antagonist that regulates hedgehog transduction in murine basal cell carcinoma” (Eur J Med Chem, 2022).
pIC50, pKd: −log10 of the molar value. Active and inactive are the calls of the source. The rule behind the calls is not given here.

What was measured:
[1] = Inhibition of hedgehog signalling in mouse ASZ001 cells assessed as reduction in Gli1 mRNA expression measured after 48 hrs by RT-PCR analysis; format: cell-based; conditions: ASZ001, 48 h
[2] = target: T1, Vitamin D3 receptor (Mus musculus) (UniProt P48281); assay: Activation of VDR in mouse ASZ001 cells assessed as upregulation of Cyp24A1 mRNA expression at 5 uM measured after 48 hrs by RT-PCR analysis relative to control; format: cell-based
T1 sequence (whole entry): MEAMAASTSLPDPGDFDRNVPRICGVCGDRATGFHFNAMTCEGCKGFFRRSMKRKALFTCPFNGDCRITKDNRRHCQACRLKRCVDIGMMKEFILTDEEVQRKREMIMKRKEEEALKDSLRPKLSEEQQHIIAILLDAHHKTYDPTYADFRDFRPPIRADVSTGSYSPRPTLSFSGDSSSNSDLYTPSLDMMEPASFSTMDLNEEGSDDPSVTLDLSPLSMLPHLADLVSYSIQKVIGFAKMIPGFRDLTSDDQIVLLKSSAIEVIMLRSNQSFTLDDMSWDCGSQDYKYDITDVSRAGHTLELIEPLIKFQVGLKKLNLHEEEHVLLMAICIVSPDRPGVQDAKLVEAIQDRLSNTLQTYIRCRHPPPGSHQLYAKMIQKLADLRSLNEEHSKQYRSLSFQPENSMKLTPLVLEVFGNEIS

[3] = tested on: ASZ001; assay: Antiproliferative activity against mouse ASZ001 assessed as reduction in cell proliferation incubated for 72 hrs by MTS assay; format: functional, cell-based
[4] = target: T1, Vitamin D3 receptor (Mus musculus); assay: Activation of VDR in mouse C3H 10T1/2 cells assessed as upregulation of Cyp24A1 mRNA expression at 5 uM measured after 48 hrs by RT-PCR analysis relative to control; format: cell-based
[5] = tested on: C3H 10T1/2; assay: Antiproliferative activity against mouse C3H 10T1/2 assessed as reduction in cell proliferation incubated for 72 hrs by MTS assay; format: functional, cell-based
[6] = Inhibition of hedgehog signalling in mouse C3H 10T1/2 cells assessed as reduction in Gli1 mRNA expression measured after 48 hrs by RT-PCR analysis; format: cell-based; conditions: C3H 10T1/2, 48 h
[7] = Inhibition of hedgehog signalling in mouse Ptch-KO MEF cells assessed as reduction in Gli1 mRNA expression measured after 48 hrs by RT-PCR analysis; format: cell-based
[8] = Inhibition of hedgehog signalling in mouse Sufu-KO MEF cells assessed as reduction in Gli1 mRNA expression measured after 48 hrs by RT-PCR analysis; format: cell-based; conditions: for IC50: mef
[9] = Binding affinity to recombinant human HSP70 assessed as dissociation constant incubated for 1 hrs […]
[10] = Inhibition of hedgehog signalling in mouse VDR-KO MEF cells assessed as reduction in Gli1 mRNA expression measured after 48 hrs by RT-PCR analysis; format: cell-based
[11] = target: T1, Vitamin D3 receptor (Mus musculus); assay: Activation of VDR in mouse ASZ001 cells assessed as upregulation of Cyp24A1 mRNA expression at 2.5 uM measured after 48 hrs by RT-PCR analysis relative to control; format: cell-based; conditions: filed as activator
[12] = target: T1, Vitamin D3 receptor (Mus musculus); assay: Activation of VDR in mouse C3H 10T1/2 cells assessed as upregulation of Cyp24A1 mRNA expression at 2.5 uM measured after 48 hrs by RT-PCR analysis relative to control; format: cell-based; conditions: filed as activator
[13] = species: Mus musculus; assay: Selectivity index, ratio of IC50 for Inhibition of hedgehog signalling in mouse VDR-KO MEF cells to IC50 for inhibition of hedgehog signalling in mouse ASZ001 cells; format: cell-based
[14] = tested on: MEF; assay: Inhibition of hedgehog signalling in mouse Sufu-KO MEF cells assessed as upregulation of Cyp27A1 expression by immunoblot analysis; format: cell-based
[15] = tested on: MEF; assay: Inhibition of hedgehog signalling in mouse Sufu-KO MEF cells assessed as upregulation of Cyp27B1 expression by immunoblot analysis; format: cell-based
[16] = tested on: ASZ001; assay: Inhibition of hedgehog signalling in mouse ASZ001 cells assessed as upregulation of Cyp27A1 expression by immunoblot analysis; format: cell-based
[17] = tested on: ASZ001; assay: Inhibition of hedgehog signalling in mouse ASZ001 cells assessed as upregulation of Cyp27B1 expression by immunoblot analysis; format: cell-based
[18] = tested on: ASZ001; assay: Inhibition of hedgehog signalling in mouse ASZ001 cells assessed as downregulation of VDR expression in by immunoblot analysis; format: cell-based
[19] = tested on: MEF; assay: Inhibition of hedgehog signalling in mouse Sufu-KO MEF cells assessed as upregulation of VDR expression at >15 uM in by immunoblot analysis; format: cell-based; conditions: dose microM >15
[20] = species: Homo sapiens; assay: Binding affinity to recombinant human HSP70 at 200 uM incubated for 1 hrs in presence of Calcitriol by Western blotting based pull-down assay; conditions: filed as antagonist
[21] = species: Homo sapiens; assay: Binding affinity to recombinant human HSP70 at 200 uM incubated for 1 hrs in presence of calcidiol by Western blotting based pull-down assay
[22] = species: Homo sapiens; assay: Competitive binding affinity to recombinant human HSP70 at 200 uM incubated for 1 hrs in presence of Vitamin D3 by Western blotting based pull-down assay
[23] = species: Homo sapiens; assay: Binding affinity to recombinant human HSP70 incubated for 1 hrs by Western blotting based pull-down assay; conditions: filed as antagonist
[24] = tested on: ASZ001; assay: Inhibition of hedgehog signalling in mouse ASZ001 cells assessed as reduction in Gli1 mRNA expression at 10 uM for 20 hrs by […]; format: cell-based
[25] = tested on: MEF; assay: Inhibition of hedgehog signalling in mouse Sufu-KO MEF cells assessed as upregulation of VDR expression at 10 uM in by immunoblot analysis; format: cell-based
[26] = tested on: ASZ001; assay: Inhibition of hedgehog signalling in mouse ASZ001 cells assessed as upregulation of VDR expression in by immunoblot analysis; format: cell-based

Compound	pIC50 [1]	Activity [2]	pIC50 [6]	Activity ([2]; filed as activator)	Activity ([4]; filed as activator)	pKd [9]	also measured
C=C1CC[C@H](O)C/C1=C/C=C1\CCC[C@]2(C)[C@@H]([C@H](C)[C@H](CCC(C)(C)O)OCc3cn(CCOCCOCCOCCNC(=O)CCCC[C@H]4SC[C@H]5NC(=O)N[C@H]54)nn3)CC[C@@H]12	5.47	< 1%	5.14				Activity [3]: Active; Activity [4]: < 1%; Activity [5]: Active
CCn1c(=O)/c(=C2\Sc3ccccc3N2C)s/c1=C\c1cccc[n+]1CC.[Cl-]	5.74		5.25				pIC50 [7]: 5.02; IC50 [8]: Not Active
C=C1CC[C@H](O)C/C1=C/C=C1\CCC[C@]2(C)[C@@H]([C@H](C)[C@@H](O)CCC(C)C)CC[C@@H]12	6.42		5.89	105%	261%	4.94	
C#CCO[C@H](CCC(C)C)[C@@H](C)[C@H]1CC[C@H]2/C(=C/C=C3/C[C@@H](O)CCC3=C)CCC[C@]12C	6.37	9%	5.96				Activity [4]: < 1%
C#CCO[C@@H](CCC(C)C)[C@@H](C)[C@H]1CC[C@H]2/C(=C/C=C3/C[C@@H](O)CCC3=C)CCC[C@]12C	6.59	< 1%	5.59				Activity [4]: < 1%
C=C1CC[C@H](O)C/C1=C/C=C1\CCC[C@]2(C)[C@@H]([C@H](C)[C@H](O)CCC(C)C)CC[C@@H]12	6.38		5.92	103%	214%	5.37	
C=C1CC[C@H](O)C/C1=C/C=C1\CCC[C@]2(C)[C@@H]([C@H](C)[C@@H](O)CCC(C)(C)O)CC[C@@H]12	5.77		5.92	130%	540%	< 4.30	
C#CCO[C@H](CCC(C)(C)O)[C@@H](C)[C@H]1CC[C@H]2/C(=C/C=C3/C[C@@H](O)CCC3=C)CCC[C@]12C	4.86	< 1%					
C=C1CC[C@H](O)C/C1=C/C=C1\CCC[C@]2(C)[C@@H]([C@H](C)CCCC(C)(C)O)CC[C@@H]12 [CALCIFEDIOL ANHYDROUS]	6.40		6.32			5.19	pIC50 [10]: 5.36; Activity [11]: > 500%; Activity [12]: > 500%; Ratio IC50 [13]: 11
C=C1CC[C@H](O)C/C1=C/C=C1\CCC[C@]2(C)[C@@H]([C@H](C)CCCC(C)C)CC[C@@H]12 [CHOLECALCIFEROL]	5.68		5.39	100%	100%	5.85	Activity [14]: Dose-Dependent Effect; Activity [15]: Dose-Dependent Effect; Activity [16]: inactive; pIC50 [7]: 5.24; Activity [17]: inactive; pIC50 ([8]; Mus musculus, MEF, 48 h, read-out: IC50): 4.87; Activity [18]: inactive; inhibition [19]: Active; Ratio IC50 [13]: 2
C=C1CC[C@H](O)C/C1=C/C=C1\CCC[C@]2(C)[C@@H]([C@H](C)[C@@H](CCC(C)(C)O)OCc3cn(CCOCCOCCOCCNC(=O)CCCC[C@H]4SC[C@H]5NC(=O)N[C@H]54)nn3)CC[C@@H]12	5.96	< 1%	5.72				Activity [20]: Active; Activity [3]: Active; Activity [21]: inactive; Activity [4]: < 1%; Activity [22]: inactive; Activity [23]: Dose-Dependent Effect; Activity [24]: Active; Activity [5]: Active
COc1ccc(-c2nc(-c3cc(C(F)(F)F)cc(C(F)(F)F)c3)n(Cc3ccc(C(N)=O)cc3)c2-c2ccc(OC)cc2)cc1	6.24		6.01			6.08	pIC50 [7]: 5.77; IC50 [8]: Not Active
C=C1/C(=C\C=C2/CCC[C@]3(C)[C@@H]([C@H](C)CCCC(C)(C)O)CC[C@@H]23)C[C@@H](O)C[C@@H]1O							Activity [25]: Active; Activity [26]: Active
C=C1CC[C@H](O)C/C1=C/C=C1\CCC[C@]2(C)[C@@H]([C@H](C)[C@H](O)CCC(C)(C)O)CC[C@@H]12	6.15		6.10	122%	527%	4.39	
